From the supplement of paper PMC10307832

What was measured:
Assay in all cases: relative viability (nuclei count vs DMSO), 5 days (fraction); higher = more cells survive
HCC-78 = test system: HCC-78
Summary of the method: (§1)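 Values are medians from duplicate plates. Each reflects relative viability, defined as the nuclei count of treated wells over that of vehicle wells. Lung cancer cell lines in 1536-well plates were pin-tool dosed one day after seeding with one drug alone or with a fixed anchor-drug dose plus five library-drug doses (not always all listed) in √10 steps, then fixed, stained and imaged at 4× after 5 days.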

NCI-H727 = test system: NCI-H727
Summary of the method: as §1

NCI-H1563 = test system: NCI-H1563
Summary of the method: as §1

NCI-H1734 = test system: NCI-H1734
Summary of the method: as §1

LU99A = test system: LU99A
Summary of the method: as §1

RERF-LC-KJ = test system: RERF-LC-KJ
Summary of the method: as §1

NCI-H2126 = test system: NCI-H2126
Summary of the method: as §1

LCLC-97TM1 = test system: LCLC-97TM1
Summary of the method: as §1

EMC-BAC-2 = test system: EMC-BAC-2
Summary of the method: as §1

NCI-H2087 = test system: NCI-H2087
Summary of the method: as §1

NCI-H1944 = test system: NCI-H1944
Summary of the method: as §1

COR-L 105 = test system: COR-L 105
Summary of the method: as §1

EKVX = test system: EKVX
Summary of the method: as §1

EPLC-272H = test system: EPLC-272H
Summary of the method: as §1

LK-2 = test system: LK-2
Summary of the method: as §1

SW 1573 = test system: SW 1573
Summary of the method: as §1

LOU-NH91 = test system: LOU-NH91
Summary of the method: as §1

NCI-H358 = test system: NCI-H358
Summary of the method: as §1

BEN = test system: BEN
Summary of the method: as §1

NCI-H1792 = test system: NCI-H1792
Summary of the method: as §1

HCC-827 = test system: HCC-827
Summary of the method: as §1

SK-MES-1 = test system: SK-MES-1
Summary of the method: as §1

Structure (SMILES): CCCCCCCCCCCC1=C(O)C(=O)C=C(O)C1=O [Embelin] + Cc1nc(NC(=O)N2CCC[C@H]2C(N)=O)sc1-c1ccnc(C(C)(C)C(F)(F)F)c1 [Alpelisib] (partner 2 µM)
- relative viability (HCC-78; first compound 0.08 µM): 0.329
- relative viability (HCC-78; first compound 0.8 µM): 0.392
- relative viability (HCC-78; first compound 2.53 µM): 0.388
- relative viability (HCC-78; first compound 8 µM): 0.307
- relative viability (NCI-H727; first compound 0.08 µM): 0.629
- relative viability (NCI-H727; first compound 0.8 µM): 0.57
- relative viability (NCI-H727; first compound 2.53 µM): 0.578
- relative viability (NCI-H727; first compound 8 µM): 0.511
- relative viability (NCI-H1563; first compound 0.08 µM): 0.845
- relative viability (NCI-H1563; first compound 0.8 µM): 0.978
- relative viability (NCI-H1563; first compound 2.53 µM): 0.856
- relative viability (NCI-H1563; first compound 8 µM): 0.913
- relative viability (NCI-H1734; first compound 0.08 µM): 0.758
- relative viability (NCI-H1734; first compound 0.8 µM): 0.726
- relative viability (NCI-H1734; first compound 2.53 µM): 0.745
- relative viability (NCI-H1734; first compound 8 µM): 0.741
- relative viability (LU99A; first compound 0.08 µM): 0.558
- relative viability (LU99A; first compound 0.8 µM): 0.533
- relative viability (LU99A; first compound 2.53 µM): 0.561
- relative viability (LU99A; first compound 8 µM): 0.496
- relative viability (RERF-LC-KJ; first compound 0.08 µM): 0.856
- relative viability (RERF-LC-KJ; first compound 0.8 µM): 0.815
- relative viability (RERF-LC-KJ; first compound 2.53 µM): 1.07
- relative viability (RERF-LC-KJ; first compound 8 µM): 0.865
- relative viability (NCI-H2126; first compound 0.08 µM): 0.792
- relative viability (NCI-H2126; first compound 0.8 µM): 0.743
- relative viability (NCI-H2126; first compound 2.53 µM): 0.799
- relative viability (NCI-H2126; first compound 8 µM): 0.748
- relative viability (LCLC-97TM1; first compound 0.8 µM): 0.291
- relative viability (LCLC-97TM1; first compound 2.53 µM): 0.283
- relative viability (LCLC-97TM1; first compound 8 µM): 0.223
- relative viability (EMC-BAC-2; first compound 0.08 µM): 0.75
- relative viability (EMC-BAC-2; first compound 0.8 µM): 0.736
- relative viability (EMC-BAC-2; first compound 2.53 µM): 0.792
- relative viability (EMC-BAC-2; first compound 8 µM): 0.825
- relative viability (NCI-H2087; first compound 0.08 µM): 0.988
- relative viability (NCI-H2087; first compound 0.8 µM): 1.13
- relative viability (NCI-H2087; first compound 2.53 µM): 1.03
- relative viability (NCI-H2087; first compound 8 µM): 1.08
- relative viability (NCI-H1944; first compound 0.08 µM): 0.818
- relative viability (NCI-H1944; first compound 0.8 µM): 0.925
- relative viability (NCI-H1944; first compound 2.53 µM): 0.875
- relative viability (NCI-H1944; first compound 8 µM): 0.828
- relative viability (COR-L 105; first compound 0.08 µM): 0.951
- relative viability (COR-L 105; first compound 0.8 µM): 1.15
- relative viability (COR-L 105; first compound 2.53 µM): 0.968
- relative viability (COR-L 105; first compound 8 µM): 1.31
- relative viability (EKVX; first compound 0.08 µM): 0.849
- relative viability (EKVX; first compound 0.8 µM): 0.914
- relative viability (EKVX; first compound 2.53 µM): 0.999
- relative viability (EKVX; first compound 8 µM): 0.823
- relative viability (EPLC-272H; first compound 0.08 µM): 0.963
- relative viability (EPLC-272H; first compound 0.8 µM): 1.21
- relative viability (EPLC-272H; first compound 2.53 µM): 0.908
- relative viability (EPLC-272H; first compound 8 µM): 0.933
- relative viability (LK-2; first compound 0.08 µM): 1.09
- relative viability (LK-2; first compound 0.8 µM): 1.5
- relative viability (LK-2; first compound 2.53 µM): 1.09
- relative viability (LK-2; first compound 8 µM): 0.99
- relative viability (SW 1573; first compound 0.08 µM): 0.815
- relative viability (SW 1573; first compound 0.8 µM): 0.966
- relative viability (SW 1573; first compound 2.53 µM): 0.786
- relative viability (SW 1573; first compound 8 µM): 0.804
- relative viability (LOU-NH91; first compound 0.08 µM): 0.771
- relative viability (LOU-NH91; first compound 0.8 µM): 0.904
- relative viability (LOU-NH91; first compound 2.53 µM): 0.862
- relative viability (LOU-NH91; first compound 8 µM): 0.709
- relative viability (NCI-H358; first compound 0.08 µM): 0.852
- relative viability (NCI-H358; first compound 0.8 µM): 0.958
- relative viability (NCI-H358; first compound 2.53 µM): 1.09
- relative viability (NCI-H358; first compound 8 µM): 0.918
- relative viability (BEN; first compound 0.08 µM): 1.09
- relative viability (BEN; first compound 0.8 µM): 1.31
- relative viability (BEN; first compound 2.53 µM): 1.3
- relative viability (BEN; first compound 8 µM): 1.01
- relative viability (NCI-H1792; first compound 0.08 µM): 0.718
- relative viability (NCI-H1792; first compound 0.8 µM): 0.764
- relative viability (NCI-H1792; first compound 2.53 µM): 0.785
- relative viability (NCI-H1792; first compound 8 µM): 0.588
- relative viability (HCC-827; first compound 0.08 µM): 1.03
- relative viability (HCC-827; first compound 0.8 µM): 0.929
- relative viability (HCC-827; first compound 2.53 µM): 1.07
- relative viability (HCC-827; first compound 8 µM): 0.961
- relative viability (SK-MES-1; first compound 0.08 µM): 0.902
- relative viability (SK-MES-1; first compound 0.8 µM): 1.15
- relative viability (SK-MES-1; first compound 2.53 µM): 0.96
- relative viability (SK-MES-1; first compound 8 µM): 0.876
